Measurements reported in the OligoGym collection.
Oligonucleotides are written 5' to 3', each unit as a sugar letter and its base; * is a phosphorothioate linkage, no mark a phosphodiester; rarer units and linkages stand in square brackets, end groups in braces. Plain capitals give the bases only. Oligonucleotides are given in HELM: sugar(base)linkage, 5' to 3'; d 2'-deoxyribose, r ribose, m 2'-O-methylribose, p phosphate. ss, as = sense and antisense strand; d = 2'-deoxy (DNA); r = 2'-OH (RNA)

The substances below were run against P2RX3 (assay: reporter assay of Huesken 2005). Details: siRNA.
Also: test concentration or dose not given here.

Going from “sense rUrUrCrUrGrCrCrCrArGrArGrArGrUrGrArGrGdTdT / antisense rCrCrUrCrArCrUrCrUrCrUrGrGrGrCrArGrArAdTdC” to “sense rCrUrUrCrCrCrArArCrCrUrGrArCrArGrCrCrAdTdT / antisense rUrGrGrCrUrGrUrCrArGrGrUrUrGrGrGrArArGdGdA”, the normalised inhibition (eCFP-eYFP dual reporter) rises from 44.3% to 66.3%.

First: sense rGrCrGrGrGrGrCrArGrGrArUrUrUrUrGrCrCrAdTdT / antisense rUrGrGrCrArArArArUrCrCrUrGrCrCrCrCrGrCdAdA
Second: sense rCrArGrGrCrUrArCrArArCrUrUrCrArGrGrUrUdTdT / antisense rArArCrCrUrGrArArGrUrUrGrUrArGrCrCrUrGdGdG
The normalised inhibition (eCFP-eYFP dual reporter) of the first is lower: 67.8% for the first, 95.5% for the second.

Compared with “sense rArCrArGrCrCrArGrGrGrArCrArUrGrArArGrAdTdT / antisense rUrCrUrUrCrArUrGrUrCrCrCrUrGrGrCrUrGrUdCdA”, “sense rArCrArGrCrUrCrUrGrUrGrCrUrCrCrGrGrArCdTdT / antisense rGrUrCrCrGrGrArGrCrArCrArGrArGrCrUrGrUdAdG” is lower in normalised inhibition (eCFP-eYFP dual reporter): 78.1% for the first, 59.2% for the second.

Going from “sense rGrArGrUrArGrUrUrCrArGrCrUrUrCrUrGrArUdTdT / antisense rArUrCrArGrArArGrCrUrGrArArCrUrArCrUrCdGdG” to “sense rArUrCrArArGrArArCrArGrCrArUrCrCrGrUrUdTdT / antisense rArArCrGrGrArUrGrCrUrGrUrUrCrUrUrGrArUdGdA”, the normalised inhibition (eCFP-eYFP dual reporter) falls from 91.8% to 70.6%.

First: sense rArCrGrCrCrArCrCrUrCrArGrGrGrCrArCrCrUdTdT / antisense rArGrGrUrGrCrCrCrUrGrArGrGrUrGrGrCrGrUdCdA
Second: sense rArCrUrUrUrGrUrArGrGrGrUrGrGrGrUrUrUrUdTdT / antisense rArArArArCrCrCrArCrCrCrUrArCrArArArGrUdAdG
The normalised inhibition (eCFP-eYFP dual reporter) of the first is lower: 8.6% for the first, 89.4% for the second.

“sense rCrUrCrGrArCrArGrCrGrUrUrUrCrUrGrArGrAdTdT / antisense rUrCrUrCrArGrArArArCrGrCrUrGrUrCrGrArGdCdC” showed a normalised inhibition (eCFP-eYFP dual reporter) of 64.2%.

The substances below were run against UBE2K (assay: reporter assay of Huesken 2005). Details: siRNA.

First: RNA1{r(G)p.r(C)p.r(C)p.r(A)p.r(G)p.r(A)p.r(U)p.r(G)p.r(A)p.r(U)p.r(C)p.r(C)p.r(A)p.r(C)p.r(A)p.r(G)p.r(G)p.r(A)p.r(U)p.d(T)p.d(T)}|RNA2{r(A)p.r(U)p.r(C)p.r(C)p.r(U)p.r(G)p.r(U)p.r(G)p.r(G)p.r(A)p.r(U)p.r(C)p.r(A)p.r(U)p.r(C)p.r(U)p.r(G)p.r(G)p.r(C)p.d(T)p.d(C)}$$$RNA1{StrandType:ss}|RNA2{StrandType:as}$
Second: RNA1{r(A)p.r(A)p.r(A)p.r(A)p.r(U)p.r(A)p.r(U)p.r(G)p.r(G)p.r(C)p.r(A)p.r(U)p.r(C)p.r(C)p.r(U)p.r(A)p.r(A)p.r(U)p.r(A)p.d(T)p.d(T)}|RNA2{r(U)p.r(A)p.r(U)p.r(U)p.r(A)p.r(G)p.r(G)p.r(A)p.r(U)p.r(G)p.r(C)p.r(C)p.r(A)p.r(U)p.r(A)p.r(U)p.r(U)p.r(U)p.r(U)p.d(A)p.d(G)}$$$RNA1{StrandType:ss}|RNA2{StrandType:as}$
The normalised inhibition (eCFP-eYFP dual reporter) of the first is higher: 74.9% for the first, 67.3% for the second.

Compared with “RNA1{r(U)p.r(A)p.r(G)p.r(A)p.r(U)p.r(C)p.r(U)p.r(U)p.r(G)p.r(U)p.r(A)p.r(G)p.r(A)p.r(U)p.r(G)p.r(A)p.r(G)p.r(A)p.r(A)p.d(T)p.d(T)}|RNA2{r(U)p.r(U)p.r(C)p.r(U)p.r(C)p.r(A)p.r(U)p.r(C)p.r(U)p.r(A)p.r(C)p.r(A)p.r(A)p.r(G)p.r(A)p.r(U)p.r(C)p.r(U)p.r(A)p.d(C)p.d(T)}$$$RNA1{StrandType:ss}|RNA2{StrandType:as}$”, “RNA1{r(G)p.r(U)p.r(A)p.r(G)p.r(U)p.r(A)p.r(G)p.r(C)p.r(A)p.r(A)p.r(A)p.r(U)p.r(C)p.r(A)p.r(G)p.r(U)p.r(A)p.r(C)p.r(A)p.d(T)p.d(T)}|RNA2{r(U)p.r(G)p.r(U)p.r(A)p.r(C)p.r(U)p.r(G)p.r(A)p.r(U)p.r(U)p.r(U)p.r(G)p.r(C)p.r(U)p.r(A)p.r(C)p.r(U)p.r(A)p.r(C)p.d(A)p.d(G)}$$$RNA1{StrandType:ss}|RNA2{StrandType:as}$” is higher in normalised inhibition (eCFP-eYFP dual reporter): 85.7% for the first, 92.1% for the second.

Compared with “RNA1{r(U)p.r(G)p.r(A)p.r(A)p.r(A)p.r(G)p.r(A)p.r(U)p.r(C)p.r(A)p.r(A)p.r(U)p.r(G)p.r(G)p.r(G)p.r(C)p.r(A)p.r(G)p.r(C)p.d(T)p.d(T)}|RNA2{r(G)p.r(C)p.r(U)p.r(G)p.r(C)p.r(C)p.r(C)p.r(A)p.r(U)p.r(U)p.r(G)p.r(A)p.r(U)p.r(C)p.r(U)p.r(U)p.r(U)p.r(C)p.r(A)p.d(G)p.d(G)}$$$RNA1{StrandType:ss}|RNA2{StrandType:as}$”, “RNA1{r(A)p.r(U)p.r(A)p.r(C)p.r(C)p.r(A)p.r(A)p.r(C)p.r(U)p.r(A)p.r(G)p.r(A)p.r(G)p.r(A)p.r(U)p.r(A)p.r(A)p.r(A)p.r(A)p.d(T)p.d(T)}|RNA2{r(U)p.r(U)p.r(U)p.r(U)p.r(A)p.r(U)p.r(C)p.r(U)p.r(C)p.r(U)p.r(A)p.r(G)p.r(U)p.r(U)p.r(G)p.r(G)p.r(U)p.r(A)p.r(U)p.d(C)p.d(T)}$$$RNA1{StrandType:ss}|RNA2{StrandType:as}$” is higher in normalised inhibition (eCFP-eYFP dual reporter): 57.3% for the first, 78.5% for the second.

Going from “RNA1{r(A)p.r(A)p.r(A)p.r(U)p.r(A)p.r(G)p.r(C)p.r(A)p.r(G)p.r(G)p.r(A)p.r(C)p.r(C)p.r(U)p.r(C)p.r(C)p.r(A)p.r(G)p.r(A)p.d(T)p.d(T)}|RNA2{r(U)p.r(C)p.r(U)p.r(G)p.r(G)p.r(A)p.r(G)p.r(G)p.r(U)p.r(C)p.r(C)p.r(U)p.r(G)p.r(C)p.r(U)p.r(A)p.r(U)p.r(U)p.r(U)p.d(C)p.d(T)}$$$RNA1{StrandType:ss}|RNA2{StrandType:as}$” to “RNA1{r(U)p.r(U)p.r(U)p.r(U)p.r(A)p.r(C)p.r(A)p.r(G)p.r(A)p.r(A)p.r(U)p.r(U)p.r(A)p.r(A)p.r(G)p.r(A)p.r(G)p.r(G)p.r(A)p.d(T)p.d(T)}|RNA2{r(U)p.r(C)p.r(C)p.r(U)p.r(C)p.r(U)p.r(U)p.r(A)p.r(A)p.r(U)p.r(U)p.r(C)p.r(U)p.r(G)p.r(U)p.r(A)p.r(A)p.r(A)p.r(A)p.d(T)p.d(T)}$$$RNA1{StrandType:ss}|RNA2{StrandType:as}$”, the normalised inhibition (eCFP-eYFP dual reporter) falls from 65.4% to 47.6%.

Compared with “RNA1{r(G)p.r(G)p.r(C)p.r(A)p.r(G)p.r(C)p.r(U)p.r(G)p.r(C)p.r(A)p.r(G)p.r(A)p.r(G)p.r(C)p.r(C)p.r(A)p.r(G)p.r(A)p.r(U)p.d(T)p.d(T)}|RNA2{r(A)p.r(U)p.r(C)p.r(U)p.r(G)p.r(G)p.r(C)p.r(U)p.r(C)p.r(U)p.r(G)p.r(C)p.r(A)p.r(G)p.r(C)p.r(U)p.r(G)p.r(C)p.r(C)p.d(A)p.d(A)}$$$RNA1{StrandType:ss}|RNA2{StrandType:as}$”, “RNA1{r(G)p.r(G)p.r(G)p.r(G)p.r(C)p.r(U)p.r(A)p.r(U)p.r(U)p.r(U)p.r(G)p.r(U)p.r(U)p.r(U)p.r(G)p.r(G)p.r(A)p.r(U)p.r(A)p.d(T)p.d(T)}|RNA2{r(U)p.r(A)p.r(U)p.r(C)p.r(C)p.r(A)p.r(A)p.r(A)p.r(C)p.r(A)p.r(A)p.r(A)p.r(U)p.r(A)p.r(G)p.r(C)p.r(C)p.r(C)p.r(C)p.d(T)p.d(G)}$$$RNA1{StrandType:ss}|RNA2{StrandType:as}$” is lower in normalised inhibition (eCFP-eYFP dual reporter): 81.8% for the first, 81.2% for the second.
